From ChEMBL document CHEMBL5634099, “Pyrrole-thiazolidinone hybrids as a new structural class of broad-spectrum anti-infectives” (Eur J Med Chem, 2023)
Converted amounts (≈) assume the structure as drawn.

Experiments:
[1] = test system: Mycobacteroides abscessus; assay: Antimycobacterial activity against Mycobacterium abscessus ATCC 19977 assessed as bacterial growth inhibition incubated for 7 days by resazurin dye based assay; type: functional; settings: ATCC 19977, 168 h, time 7 day
[2] = test system: Pseudomonas aeruginosa; assay: Antibacterial activity against Pseudomonas aeruginosa ATCC 27853 assessed as bacterial growth inhibition incubated for 16 to 18 hrs by CLSI based susceptibility testing method; type: functional; settings: time 16-18 hrs
[3] = test system: Staphylococcus aureus; assay: Antibacterial activity against Staphylococcus aureus ATCC 29213 assessed as bacterial growth inhibition incubated for 16 to 18 hrs by CLSI based susceptibility testing method; type: functional; settings: time 16-18 hrs
[4] = test system: Klebsiella pneumoniae; assay: Antibacterial activity against Klebsiella pneumoniae BAA 1705 assessed as bacterial growth inhibition incubated for 16 to 18 hrs by CLSI based susceptibility testing method; type: functional; settings: time 16-18 hrs
[5] = test system: Mycobacterium tuberculosis; assay: Antimycobacterial activity against Mycobacterium tuberculosis H37Rv ATCC 27294 assessed as bacterial growth inhibition incubated for 7 days by resazurin dye based assay; type: functional; settings: H37Rv ATCC 27294, 168 h, time 7 day
[6] = test system: Mycolicibacterium fortuitum; assay: Antimycobacterial activity against Mycobacterium fortuitum ATCC 6841 assessed as bacterial growth inhibition incubated for 7 days by resazurin dye based assay; type: functional; settings: ATCC 6841, 168 h, time 7 day
[7] = test system: Acinetobacter baumannii; assay: Antibacterial activity against Acinetobacter baumannii BAA 1605 assessed as bacterial growth inhibition incubated for 16 to 18 hrs by CLSI based susceptibility testing method; type: functional; settings: time 16-18 hrs
[8] = test system: Mycobacteroides chelonae; assay: Antimycobacterial activity against Mycobacteroides chelonae ATCC 35752 assessed as bacterial growth inhibition incubated for 7 days by resazurin dye based assay; type: functional; settings: ATCC 35752, 168 h, time 7 day
[9] = test system: Escherichia coli; assay: Antibacterial activity against Escherichia coli ATCC 25922 assessed as bacterial growth inhibition incubated for 16 to 18 hrs by CLSI based susceptibility testing method; type: functional; settings: time 16-18 hrs
[10] = Cytotoxicity against African green monkey Vero cells assessed as reduction in cell viability incubated for 72 hrs by MTT assay; type: toxicity, cell-based; settings: chlorocebus sabaeus
[11] = test system: Staphylococcus aureus; assay: Antibacterial activity against methicillin-resistant Staphylococcus aureus NR 198 clinical isolate assessed as bacterial growth inhibition incubated for 16 to 18 hrs by CLSI based susceptibility testing method; type: functional; settings: time 16-18 hrs
[12] = test system: Staphylococcus aureus; assay: Antibacterial activity against vancomycin-resistant Staphylococcus aureus VRS 1 clinical isolate assessed as bacterial growth inhibition incubated for 16 to 18 hrs by CLSI based susceptibility testing method; type: functional; settings: time 16-18 hrs
[13] = test system: Staphylococcus aureus; assay: Antibacterial activity against methicillin-resistant Staphylococcus aureus NR 191 clinical isolate assessed as bacterial growth inhibition incubated for 16 to 18 hrs by CLSI based susceptibility testing method; type: functional; settings: time 16-18 hrs
[14] = test system: Staphylococcus aureus; assay: Antibacterial activity against methicillin-sensitive Staphylococcus aureus ATCC 29213 clinical isolate assessed as bacterial growth inhibition incubated for 16 to 18 hrs by CLSI based susceptibility testing method; type: functional; settings: time 16-18 hrs
[15] = test system: Staphylococcus aureus; assay: Antibacterial activity against methicillin-resistant Staphylococcus aureus NR 129 clinical isolate assessed as bacterial growth inhibition incubated for 16 to 18 hrs by CLSI based susceptibility testing method; type: functional; settings: time 16-18 hrs
[16] = test system: Staphylococcus aureus; assay: Antibacterial activity against methicillin-resistant Staphylococcus aureus NR 186 clinical isolate assessed as bacterial growth inhibition incubated for 16 to 18 hrs by CLSI based susceptibility testing method; type: functional; settings: time 16-18 hrs
[17] = test system: Staphylococcus aureus; assay: Antibiofilm activity against Staphylococcus aureus ATCC 29213 assessed as reduction in biofilm formation at 10 times MIC incubated for 24 hrs by absorbance based assay relative to control; type: functional; parameters: scale not given: the % may be the effect or the level left
[18] = test system: Staphylococcus aureus; assay: Antibacterial activity against vancomycin-resistant Staphylococcus aureus VRS 12 clinical isolate assessed as bacterial growth inhibition incubated for 16 to 18 hrs by CLSI based susceptibility testing method; type: functional; settings: time 16-18 hrs
[19] = test system: Staphylococcus aureus; assay: Antibacterial activity against methicillin-resistant Staphylococcus aureus NR 100 clinical isolate assessed as bacterial growth inhibition incubated for 16 to 18 hrs by CLSI based susceptibility testing method; type: functional; settings: time 16-18 hrs
[20] = test system: Staphylococcus aureus; assay: Antibacterial activity against vancomycin-resistant Staphylococcus aureus VRS 4 clinical isolate assessed as bacterial growth inhibition incubated for 16 to 18 hrs by CLSI based susceptibility testing method; type: functional; settings: time 16-18 hrs
[21] = Selectivity index, ratio of CC50 for African green monkey Vero cells to IC50 for Staphylococcus aureus ATCC 29213; type: toxicity; settings: read-out: Selectivity Index
[22] = test system: Staphylococcus aureus; assay: Antibacterial activity against methicillin-resistant Staphylococcus aureus NR 193 clinical isolate assessed as bacterial growth inhibition incubated for 16 to 18 hrs by CLSI based susceptibility testing method; type: functional; settings: time 16-18 hrs
[23] = test system: Staphylococcus aureus; assay: Antibacterial activity against methicillin-resistant Staphylococcus aureus NR 192 clinical isolate assessed as bacterial growth inhibition incubated for 16 to 18 hrs by CLSI based susceptibility testing method; type: functional; settings: time 16-18 hrs
[24] = test system: Staphylococcus aureus; assay: Antibacterial activity against methicillin-resistant Staphylococcus aureus NR 119 clinical isolate assessed as bacterial growth inhibition incubated for 16 to 18 hrs by CLSI based susceptibility testing method; type: functional; settings: time 16-18 hrs
[25] = test system: Staphylococcus aureus; assay: Antibacterial activity against methicillin-resistant Staphylococcus aureus NR 194 clinical isolate assessed as bacterial growth inhibition incubated for 16 to 18 hrs by CLSI based susceptibility testing method; type: functional; settings: time 16-18 hrs

SMILES	MIC [1]	MIC [2]	MIC [3]	MIC [4]	MIC [5]	MIC [6]	MIC [7]	MIC [8]	MIC [9]	MIC [11]	MIC [12]	MIC [13]	MIC [14]	MIC [15]	MIC [16]	MIC [18]	MIC [19]	MIC [20]	MIC [22]	MIC [23]	further results
Cc1nc(/N=C2\NC(=O)/C(=C/c3cc(C)n(-c4cccc(F)c4)c3C)S2)sc1C	> 64 mg/L	> 64 mg/L	> 64 mg/L	> 64 mg/L	64 mg/L (≈ 150 µM)	> 64 mg/L	> 64 mg/L	> 64 mg/L	> 64 mg/L												
COc1ccccc1-n1c(C)cc(/C=C2\S/C(=N/c3nccs3)NC2=O)c1C	> 64 mg/L	> 64 mg/L	0.5 mg/L (≈ 1.22 µM)	> 64 mg/L	2 mg/L (≈ 4.87 µM)	> 64 mg/L	> 64 mg/L	> 64 mg/L	> 64 mg/L	2 mg/L (≈ 4.87 µM)	2 mg/L (≈ 4.87 µM)	2 mg/L (≈ 4.87 µM)	0.5 mg/L (≈ 1.22 µM)	2 mg/L (≈ 4.87 µM)	1 mg/L (≈ 2.44 µM)	2 mg/L (≈ 4.87 µM)	1 mg/L (≈ 2.44 µM)	2 mg/L (≈ 4.87 µM)	2 mg/L (≈ 4.87 µM)	2 mg/L (≈ 4.87 µM)	CC50 at 72 h [10]: 40 mg/L (≈ 97.4 µM); Activity [17]: >11%; selectivity ratio [21]: 80; MIC [24]: 2 mg/L (≈ 4.87 µM); MIC [25]: 2 mg/L (≈ 4.87 µM)
Cc1nc(/N=C2\NC(=O)/C(=C/c3cc(C)n(-c4ccccc4Cl)c3C)S2)sc1C	> 64 mg/L	> 64 mg/L	> 64 mg/L	> 64 mg/L	2 mg/L (≈ 4.51 µM)	> 64 mg/L	> 64 mg/L	> 64 mg/L	> 64 mg/L												
Cc1nc(/N=C2\NC(=O)/C(=C/c3cc(C)n(-c4ccc(F)cc4)c3C)S2)sc1C	> 64 mg/L	> 64 mg/L	> 64 mg/L	> 64 mg/L	16 mg/L (≈ 37.5 µM)	> 64 mg/L	> 64 mg/L	> 64 mg/L	> 64 mg/L												
Cc1ccc(-n2c(C)cc(/C=C3\S/C(=N/c4nc(C)c(C)s4)NC3=O)c2C)cc1C	> 64 mg/L	> 64 mg/L	> 64 mg/L	> 64 mg/L	4 mg/L (≈ 9.16 µM)	> 64 mg/L	> 64 mg/L	> 64 mg/L	> 64 mg/L												
C[C@H]1COc2c(N3CCN(C)CC3)c(F)cc3c(=O)c(C(=O)O)cn1c23 [LEVOFLOXACIN ANHYDROUS]			0.25 mg/L (≈ 0.692 µM)	64 mg/L (≈ 177 µM)						32 mg/L (≈ 88.6 µM)	32 mg/L (≈ 88.6 µM)	16 mg/L (≈ 44.3 µM)	0.25 mg/L (≈ 0.692 µM)	0.25 mg/L (≈ 0.692 µM)	4 mg/L (≈ 11.1 µM)	32 mg/L (≈ 88.6 µM)	0.25 mg/L (≈ 0.692 µM)	> 64 mg/L	32 mg/L (≈ 88.6 µM)	8 mg/L (≈ 22.1 µM)	Activity [17]: 10%; MIC [24]: 16 mg/L (≈ 44.3 µM); MIC [25]: 0.125 mg/L (≈ 0.346 µM)
C[C@@H](O)[C@H]1C(=O)N2C(C(=O)O)=C(S[C@@H]3CN[C@H](C(=O)N(C)C)C3)[C@H](C)[C@H]12 [MEROPENEM]										32 mg/L (≈ 83.4 µM)	64 mg/L (≈ 167 µM)	32 mg/L (≈ 83.4 µM)	0.125 mg/L (≈ 0.326 µM)	2 mg/L (≈ 5.22 µM)	4 mg/L (≈ 10.4 µM)	4 mg/L (≈ 10.4 µM)	32 mg/L (≈ 83.4 µM)	32 mg/L (≈ 83.4 µM)	64 mg/L (≈ 167 µM)	8 mg/L (≈ 20.9 µM)	MIC [24]: 64 mg/L (≈ 167 µM); MIC [25]: 1 mg/L (≈ 2.61 µM)
COc1cccc(OC)c1C(=O)N[C@@H]1C(=O)N2[C@@H]1SC(C)(C)[C@@H]2C(=O)O [METHICILLIN]										> 64 mg/L	> 64 mg/L	> 64 mg/L	1 mg/L (≈ 2.63 µM)	32 mg/L (≈ 84.1 µM)	64 mg/L (≈ 168 µM)	> 64 mg/L	> 64 mg/L	> 64 mg/L	> 64 mg/L	> 64 mg/L	MIC [24]: > 64 mg/L; MIC [25]: 32 mg/L (≈ 84.1 µM)
CN[C@H](CC(C)C)C(=O)N[C@H]1C(=O)N[C@@H](CC(N)=O)C(=O)N[C@H]2C(=O)N[C@H]3C(=O)N[C@H](C(=O)N[C@H](C(=O)O)c4cc(O)cc(O)c4-c4cc3ccc4O)[C@H](O)c3ccc(c(Cl)c3)Oc3cc2cc(c3O[C@@H]2O[C@H](CO)[C@@H](O)[C@H](O)[C@H]2O[C@H]2C[C@](C)(N)[C@H](O)[C@H](C)O2)Oc2ccc(cc2Cl)[C@H]1O [VANCOMYCIN]											> 64 mg/L					> 64 mg/L		> 64 mg/L			Activity [17]: 7.7%
